Test results: the supplement of paper PMC11061612

Key:
[1] = tested on: FTC-133 (Thyroid Gland Carcinoma); assay: combination Emax (second highest fraction inhibited in the dose matrix, 72 h); higher = more inhibition; extreme values may be limits of the assay
In short: (§1)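 Cell lines in DMEM/F12 or RPMI with 10% FBS were plated in 1536-well plates, held 24 hours at 37°C, 5% CO2, then given two-drug dose matrices for 72 hours (DMSO typically 0.2%). Viability was read by CellTiter-Glo 2.0 luminescence and scaled as inhibition from 0 (vehicle wells) to 1 (blank wells). Combination Emax is the second-highest inhibition in the matrix; Bliss excess is observed combination effect minus expected EA + EB − EA·EB, EA and EB being single-agent effects.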

[2] = tested on: TGBC1TKB (Biliary Tract Carcinoma); assay: as above
In short: as §1

[3] = tested on: Detroit562 (Head and Neck Carcinoma); assay: as above
In short: as §1

NCI-H2722 (Mesothelioma) = assay: as above
In short: as §1

[4] = tested on: BE-13 (T-Lymphoblastic Leukemia); assay: Bliss excess, mean over the matrix (fraction); higher = more synergy
In short: as §1

NCI-H2052 (Mesothelioma) = assay: as above
In short: as §1

[5] = tested on: WSU-NHL (B-Cell Non-Hodgkin's Lymphoma); assay: as above
In short: as §1

[6] = tested on: FTC-133 (Thyroid Gland Carcinoma); assay: as above
In short: as §1

[7] = tested on: TGBC1TKB (Biliary Tract Carcinoma); assay: as above
In short: as §1

[8] = tested on: OVCAR-5 (Ovarian Carcinoma); assay: as above
In short: as §1

[9] = tested on: LNZTA3WT4 (Low Grade Glioma); assay: as above
In short: as §1

[10] = tested on: BFTC-909 (Kidney Carcinoma); assay: as above
In short: as §1

BPH-1 (Non-Cancerous) = assay: as above
In short: as §1

KS-1 (Glioblastoma) = assay: as above
In short: as §1

GAMG (Glioblastoma) = assay: as above
In short: as §1

[11] = tested on: HuCCT1 (Biliary Tract Carcinoma); assay: as above
In short: as §1

[12] = tested on: SW1573 (Lung Adenocarcinoma); assay: as above
In short: as §1

[13] = tested on: NCI-H209 (Small Cell Lung Carcinoma); assay: as above
In short: as §1

[14] = tested on: OE21 (Esophageal Squamous Cell Carcinoma); assay: as above
In short: as §1

[15] = tested on: L-428 (Hodgkin's Lymphoma); assay: as above
In short: as §1
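For Bliss excess, mean over the matrix in this document: after 72 h of two-drug dosing.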

| SMILES | combination Emax [1] | combination Emax [2] | combination Emax [3] | combination Emax (NCI-H2722 (Mesothelioma)) | Bliss excess [4] | Bliss excess (NCI-H2052 (Mesothelioma)) | Bliss excess [5] | Bliss excess [6] | Bliss excess [7] | Bliss excess [8] | Bliss excess [9] | Bliss excess [10] | Bliss excess (BPH-1 (Non-Cancerous)) | Bliss excess (KS-1 (Glioblastoma)) | Bliss excess (GAMG (Glioblastoma)) | Bliss excess [11] | Bliss excess [12] | Bliss excess [13] | Bliss excess [14] | Bliss excess [15] |
| --- | --- | --- | --- | --- | --- | --- | --- | --- | --- | --- | --- | --- | --- | --- | --- | --- | --- | --- | --- | --- |
| Cc1cc2ncnn2cc1Nc1ncc2c(n1)n(C1CCOCC1)c(=O)n2C [AZD7648] + C=CCn1c(=O)c2cnc(Nc3ccc(N4CCN(C)CC4)cc3)nc2n1-c1cccc(C(C)(C)O)n1 [AZD1775] (first compound max 10 µM, partner max 1 µM) | 0.633 | 0.335 | 0.704 | 0.327 | 0.0217 | -0.0039 | 0.0072 | 0.0069 | -0.0362 | -0.0038 | -0.0049 | 0.0097 | 0.0321 | 0.0297 | -0.005 | 0.0065 | -0.0452 | -0.0177 | -0.0013 | 0.0144 |
| Cc1cc2ncnn2cc1Nc1ncc2c(n1)n(C1CCOCC1)c(=O)n2C [AZD7648] + CCN(CCO)CCCOc1ccc2c(Nc3cc(CC(=O)Nc4cccc(F)c4)[nH]n3)ncnc2c1 [AZD2811] (first compound max 10 µM, 7x7, partner max 1 µM) | 0.354 | 0.313 | 0.829 | 0.291 | -0.066 | -0.0104 | -0.0635 | 0.0066 | 0.0111 | 0.043 | 0.0063 | 0.0076 | 0.0033 | -0.0405 | 0.0192 | 0.0401 | 0.0327 | 0.0054 | 0.0379 | 0.0783 |
| Cc1cc2ncnn2cc1Nc1ncc2c(n1)n(C1CCOCC1)c(=O)n2C [AZD7648] + COc1cc([C@@H]2c3cc4c(cc3[C@@H](O[C@@H]3O[C@@H]5CO[C@@H](C)O[C@H]5[C@H](O)[C@H]3O)[C@H]3COC(=O)[C@H]23)OCO4)cc(OC)c1O [Etoposide] (first compound max 10 µM, 7x7, partner max 10 µM) |  | 0.326 |  |  | 0.0881 |  | 0.0848 |  | 0.0108 | 0.0481 | 0.102 |  |  | 0.0894 | 0.147 | 0.0335 |  |  |  |  |
| CC(=O)c1c(C)c2cnc(Nc3ccc(N4CCNCC4)cn3)nc2n(C2CCCC2)c1=O [Palbociclib] + CN(CC[C@H](CSC1=CC=CC=C1)NC2=C(C=C(C=C2)S(=O)(=O)NC(=O)C3=CC=C(C=C3)N4CCC(CC4)[C@H](C5=CC=CC=C5C6=CC=C(C=C6)Cl)O)S(=O)(=O)C(F)(F)F)CCO [AZD4320] (first compound max 10 µM, 7x7, partner max 1 µM) | 0.582 |  | 0.633 | 0.283 |  | -0.0159 |  | -0.0778 |  |  |  | -0.0576 | -0.0818 |  |  |  | -0.0486 | 0.0266 | 0.0269 | -0.0128 |
| N#Cc1cnc(Nc2cc(NC[C@H]3CNCCO3)c(C(F)(F)F)cn2)cn1 [SRA737] + C=CCn1c(=O)c2cnc(Nc3ccc(N4CCN(C)CC4)cc3)nc2n1-c1cccc(C(C)(C)O)n1 [AZD1775] (first compound max 10 µM, partner max 1 µM) |  | 0.271 |  |  | 0.0657 |  | 0.187 |  | -0.0128 | 0.0274 | -0.0108 |  |  | 0.0472 | 0.0904 | -0.0292 |  |  |  |  |
| N#Cc1cnc(Nc2cc(NC[C@H]3CNCCO3)c(C(F)(F)F)cn2)cn1 [SRA737] + CCc1c2c(nc3ccc(O)cc13)-c1cc3c(c(=O)n1C2)COC(=O)[C@]3(O)CC [SN-38] (first compound max 10 µM, 7x7, partner max 0.3 µM) |  | 0.367 |  |  | 0.057 |  | -0.0324 |  | 0.0008 | -0.0048 | -0.002 |  |  | -0.0798 | 0.0754 | 0.0261 |  |  |  |  |
| N#Cc1cnc(Nc2cc(NC[C@H]3CNCCO3)c(C(F)(F)F)cn2)cn1 [SRA737] + Nc1ccn([C@@H]2O[C@H](CO)[C@@H](O)C2(F)F)c(=O)n1 [Gemcitabine] (first compound max 10 µM, 7x7, partner max 0.3 µM) |  | 0.457 |  |  | 0.0965 |  | 0.017 |  | 0.0401 | 0.0627 | 0.0301 |  |  | 0.0304 | 0.182 | 0.0507 |  |  |  |  |
| N#Cc1cnc(Nc2cc(NC[C@H]3CNCCO3)c(C(F)(F)F)cn2)cn1 [SRA737] + O=c1[nH]cc(F)c(=O)[nH]1 [5-Fluorouracil] (first compound max 10 µM, 7x7, partner max 20 µM) |  | 0.0891 |  |  | -0.0334 |  | 0.0005 |  | -0.0482 | -0.0535 | -0.0325 |  |  | -0.0464 | -0.0226 | 0.102 |  |  |  |  |
| C[C@@H](c1ccc2nccn2c1)n1nnc2ncc(-c3cnn(C)c3)nc21 [Savolitinib] + CN(CC[C@H](CSC1=CC=CC=C1)NC2=C(C=C(C=C2)S(=O)(=O)NC(=O)C3=CC=C(C=C3)N4CCC(CC4)[C@H](C5=CC=CC=C5C6=CC=C(C=C6)Cl)O)S(=O)(=O)C(F)(F)F)CCO [AZD4320] (first compound max 1 µM, 7x7, partner max 1 µM) | 0.546 |  | 0.237 | 0.308 |  | -0.0147 |  | -0.056 |  |  |  | -0.0417 | -0.0802 |  |  |  | -0.0657 | -0.0172 | -0.043 | -0.0726 |
